Data on nine compounds can be found in patent US20230372498A1, “PLK1 SELECTIVE DEGRADATION INDUCING COMPOUND” (UPPTHERA, priority 2020, published 2023).

In this assay the target is T1, PLK1 (Homo sapiens, UniProt P53350).
T1 construct: endogenous in cells; host or cells: HeLa
Description: PLK1 protein degradation in HeLa cells, Western blotting (PLK1/GAPDH ratio). To be noted: 6 hours compound incubation; for DC50: measured only if the grade of Dmax is A or B; for Dmax: thymidine block and release, 10 points three-fold from 3 μM, PLK1 to GAPDH ratio, read-out: Dmax. Format: cell-based. The text has this: The HeLa cell line was purchased from Korea Cell Line Bank (KCLB), Seoul, Korea. The passage in cell culture was maintained at P115 to P125.
For cell culture, DMEM (Gibco, Cat. No. 1195-65; Lot. No. 2085318), FBS (Gibco, Cat. No. 16000-044; Lot. No. 2097593), Penicillin/Streptomycin (PS) (Gibco, Cat. No. 15140-122; Lot. No. 2058855), 100 mm^2 cell culture dish (SPL, Cat. No. 20100), 150 mm^2 cell culture dish (SPL, Cat. No. 20150), 12-well culture plate (SPL, Cat. No. 30012), PBS pH 7.4 (Gibco, Cat. No. 10010-023; Lot. No. 2085080), TrypLE™ Express (Gibco, Cat. No. 12605-010; Lot No. 2070638), Counting Chamber (Hematocytometer) (Hirschmann, Cat. No. 8100204), and 0.4% Trypan Blue Solution (DYNEBIO, Cat. No. CBT3710; Lot. No. 20190723) were used.
2×10^5 cells were seeded for each well of a 12-well plate (SPL), and the cells were cultured in the culture medium in a total volume of 2 ml.
The compounds of Examples were completely dissolved in DMSO and used in the experiment, and thymidine was completely dissolved in DW and used in the experiment. For thymidine block, the products were treated with 2 mM of thymidine (Sigma-Aldrich Cat. No. T9250-5G) and then incubated for 24 hours.
For release and chemical treatment, the medium was suctioned and washed 3 times with 1×PBS. Complete media was added, followed by incubation for 4 hours in a CO2 incubator. Each compound was diluted three folds from the highest concentration of 3 μM to the lowest concentration in 10 points and then incubated for 6 hours again.
For SDS-PAGE and Western blotting, 1×RIPA lysis buffer (Rockland, Cat. No. MB-030-0050; Lot no. 39751), 100× Protease Inhibitor Cocktail (Quartett, Cat. No. PPI1015; Lot no. PCO50038424), Pierce™ BCA protein assay kit (ThermoScientific, Cat. No. 23225; Lot no. UC276876), albumin standard (ThermoScientific, Cat. No. 23209; Lot no. UB269561), 4-15% Mini-PROTEAN TGX stain-free gel (Bio-rad, Cat. No. 4568085; Lot no. L007041B), 10× Tris/Glycine/SDS buffer (Bio-rad, Cat. No. 1610732; Lot no. 10000044375B); 10×TBS (Bio-rad, Cat. No. 1706435; Lot no. 1000045140B), 10% Tween 20 (Cat. No. 1610781; Lot no. L004152B), Color protein standard broad range (NEB, Cat. No. P7719S; Lot no. 10040349), 4× Laemmli sample buffer (Bio-rad, Cat. No. 1610747; Lot no. L004133B), β-mercaptoethanol (Sigma-Aldrich, Cat. No. M3148; Lot no. 60-24-2), SuperBlock™ T20 (TBS) blocking buffer (ThermoScientific, Cat. No. 37536; Lot no. UC282578), 1M sodium azide solution (Sigma-Aldrich, Cat. No. 08591-1 mL-F; Lot no. BCBV4989), α-Rabbit pAb to Ms IgG (abcam, Cat. No. ab97046; Lot no. GR3252115-1), α-Goat pAb to Rb IgG (CST, Cat. No. 7074S; Lot no. 28), α-GAPDH (abcam, Cat. No. ab8245; Lot no. GR3275542-2), α-Plk1 (CST, Cat. No. 208G4), α-BRD4 (CST, Cat. No. 13440S), ECL™ Prime western blotting reagents (GE Healthcare, Cat. No. RPN2232; Lot no. 17001655), Ponceau S solution (Sigma-Aldrich, Cat. No. P7170; Lot no. SLBV4112), Difco™ Skim milk (BD, Cat. No. 232100; Lot no. 8346795), and iBlot® 2 NC Regular stacks (Invitrogen, Cat. No. IB323001; Lot no. 2NR110619-02) were used.
For cell harvesting, the cells were first separated from the plate using trypsin and then washed with the medium and PBS. Specifically, the medium was suctioned off and washed with 1 mL of PBS, and PBS was suctioned off. The cells were treated with 0.5 mL TrypLE™ Express at 37° C. for 7 minutes to separate the cells, and then 0.5 mL of complete medium was added to collect 1 mL of cell culture solution. Then, 1 mL of the cell collection solution was centrifuged at 8,000 rpm for 120 seconds, and the supernatant was removed. After washing with 0.2 mL of PBS, the PBS was removed.
For cell lysis, a lysis buffer was added and cell debris was removed to obtain a cell lysate. Specifically, the cells were treated with 70 μL of 1×RIPA buffer containing a protease inhibitor and incubated for 30 minutes on ice. Then, the cells were centrifuged at 4° C. and 15,000 rpm for 10 minutes to obtain a cell lysate. […]
On the technique in general: In western blotting, separated proteins are transferred to a membrane and probed.

SMILES strings stand for the structures. Some results are limits rather than exact numbers.

T1 sequence (P53350 whole entry): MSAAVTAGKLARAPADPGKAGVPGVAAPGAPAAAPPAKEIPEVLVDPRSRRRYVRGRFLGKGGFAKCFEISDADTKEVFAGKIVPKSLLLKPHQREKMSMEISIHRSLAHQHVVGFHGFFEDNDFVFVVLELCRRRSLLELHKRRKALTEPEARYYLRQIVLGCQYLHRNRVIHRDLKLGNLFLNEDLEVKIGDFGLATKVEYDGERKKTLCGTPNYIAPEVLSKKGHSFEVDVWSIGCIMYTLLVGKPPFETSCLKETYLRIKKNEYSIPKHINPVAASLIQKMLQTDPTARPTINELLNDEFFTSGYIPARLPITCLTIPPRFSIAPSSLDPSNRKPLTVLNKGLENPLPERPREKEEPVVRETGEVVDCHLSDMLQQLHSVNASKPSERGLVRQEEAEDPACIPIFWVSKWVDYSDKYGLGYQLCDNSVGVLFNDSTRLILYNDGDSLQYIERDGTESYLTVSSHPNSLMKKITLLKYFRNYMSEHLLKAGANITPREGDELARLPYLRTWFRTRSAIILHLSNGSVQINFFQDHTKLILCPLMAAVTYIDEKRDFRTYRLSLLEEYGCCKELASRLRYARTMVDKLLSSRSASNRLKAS

By DC50 is commonly meant the concentration at which degradation of the target reaches its halfway point. The Dmax is the greatest extent of degradation seen. In the case of `COc1cc(C(=O)NC2CCN(CCOCCCCCCCCOCCNc3cccc4c3C(=O)N(C3CCC(=O)NC3=O)C4=O)CC2)c(F)cc1Nc1ncc2c(n1)N(C1CCCC1)CC(F)(F)C(=O)N2C` (centres unmarked) [Compound 22, 4-((9-cyclopentyl-7,7-difluoro-5-methyl-6-oxo-6,7,8,9-tetrahydro-5H-pyrimido[4,5-b][1,4]diazepin-2-yl)amino)-N-(1-(2-((8-(2-((2-(2,6-dioxopiperidin-3-yl)-1,3-dioxoisoindolin-4-yl)amino)ethoxy)octyl)oxy)ethyl)piperidin-4-yl)-2-fluoro-5-methoxybenzamide], the half-maximal degradation concentration (DC50) was at most 500 nM and the Dmax was 60 to 80%. For `COc1cc(C(=O)NC2CCN(CCCCOCCCOCCOCCNc3cccc4c3C(=O)N(C3CCC(=O)NC3=O)C4=O)CC2)c(F)cc1Nc1ncc2c(n1)N(C1CCCC1)CC(F)(F)C(=O)N2C` (centres unmarked) [Compound 23, 4-((9-cyclopentyl-7,7-difluoro-5-methyl-6-oxo-6,7,8,9-tetrahydro-5H-pyrimido[4,5-b][1,4]diazepin-2-yl)amino)-N-(1-(4-(3-(2-(2-((2-(2,6-dioxopiperidin-3-yl)-1,3-dioxoisoindolin-4-yl)amino)ethoxy)ethoxy)propoxy)butyl)piperidin-4-yl)-2-fluoro-5-methoxybenzamide] the same measures were at most 50 nM and at least 80%. For `COc1cc(C(=O)NC2CCN(CCCOCCCOCCCOCCNc3cccc4c3C(=O)N(C3CCC(=O)NC3=O)C4=O)CC2)c(F)cc1Nc1ncc2c(n1)N(C1CCCC1)CC(F)(F)C(=O)N2C` (centres unmarked) [Compound 24, 4-((9-cyclopentyl-7,7-difluoro-5-methyl-6-oxo-6,7,8,9-tetrahydro-5H-pyrimido[4,5-b][1,4]diazepin-2-yl)amino)-N-(1-(3-(3-(3-(2-((2-(2,6-dioxopiperidin-3-yl)-1,3-dioxoisoindolin-4-yl)amino)ethoxy)propoxy)propoxy)propyl)piperidin-4-yl)-2-fluoro-5-methoxybenzamide] the same measures were at most 50 nM and at least 80%.

Consider `COc1cc(C(=O)NC2CCN(CCOCCCOCCOCCOCCNc3cccc4c3C(=O)N(C3CCC(=O)NC3=O)C4=O)CC2)c(F)cc1Nc1ncc2c(n1)N(C1CCCC1)CC(F)(F)C(=O)N2C` (centres unmarked) [Compound 25, 4-((9-cyclopentyl-7,7-difluoro-5-methyl-6-oxo-6,7,8,9-tetrahydro-5H-pyrimido[4,5-b][1,4]diazepin-2-yl)amino)-N-(1-(1-((2-(2,6-dioxopiperidin-3-yl)-1,3-dioxoisoindolin-4-yl)amino)-3,6,9,13-tetraoxapentadecan-15-yl)piperidin-4-yl)-2-fluoro-5-methoxybenzamide], for which the DC50 was at most 50 nM and the greatest degradation seen (Dmax) is at least 80%. Turning to `COc1cc(C(=O)NC2CCN(CCOCCOCC(=O)Nc3cccc4c3C(=O)N(C3CCC(=O)NC3=O)C4=O)CC2)c(F)cc1Nc1ncc2c(n1)N(C1CCCC1)CC(F)(F)C(=O)N2C` (centres unmarked) [Compound 26, 4-((9-cyclopentyl-7,7-difluoro-5-methyl-6-oxo-6,7,8,9-tetrahydro-5H-pyrimido[4,5-b][1,4]diazepin-2-yl)amino)-N-(1-(2-(2-(2-((2-(2,6-dioxopiperidin-3-yl)-1,3-dioxoisoindolin-4-yl)amino)-2-oxoethoxy)ethoxy)ethyl)piperidin-4-yl)-2-fluoro-5-methoxybenzamide], the Dmax was below 60%. For the compound `COc1cc(C(=O)NC2CCN(CCOCCOCCOCCOCC(=O)Nc3cccc4c3C(=O)N(C3CCC(=O)NC3=O)C4=O)CC2)c(F)cc1Nc1ncc2c(n1)N(C1CCCC1)CC(F)(F)C(=O)N2C` (centres unmarked) [Compound 27, 14-(4-(4-((9-cyclopentyl-7,7-difluoro-5-methyl-6-oxo-6,7,8,9-tetrahydro-5H-pyrimido[4,5-b][1,4]diazepin-2-yl)amino)-2-fluoro-5-methoxybenzamido)piperidin-1-yl)-N-(2-(2,6-dioxopiperidin-3-yl)-1,3-dioxoisoindolin-4-yl)-3,6,9,12-tetraoxatetradecanamide], the 50% degradation concentration (DC50) was at most 500 nM and the maximal degradation (Dmax) is 60 to 80%. For `COc1cc(C(=O)NC2CCN(CCOCCCCCCCCOCC(=O)Nc3cccc4c3C(=O)N(C3CCC(=O)NC3=O)C4=O)CC2)c(F)cc1Nc1ncc2c(n1)N(C1CCCC1)CC(F)(F)C(=O)N2C` (centres unmarked) [Compound 28, 4-((9-cyclopentyl-7,7-difluoro-5-methyl-6-oxo-6,7,8,9-tetrahydro-5H-pyrimido[4,5-b][1,4]diazepin-2-yl)amino)-N-(1-(2-((8-(2-((2-(2,6-dioxopiperidin-3-yl)-1,3-dioxoisoindolin-4-yl)amino)-2-oxoethoxy)octyl)oxy)ethyl)piperidin-4-yl)-2-fluoro-5-methoxybenzamide], in that order: at most 500 nM and 60 to 80%.

With `COc1cc(C(=O)NC2CCN(CCOCCNC(=O)CNc3cccc4c3C(=O)N(C3CCC(=O)NC3=O)C4=O)CC2)c(F)cc1Nc1ncc2c(n1)N(C1CCCC1)CC(F)(F)C(=O)N2C` (centres unmarked) [Compound 29, 4-((9-cyclopentyl-7,7-difluoro-5-methyl-6-oxo-6,7,8,9-tetrahydro-5H-pyrimido[4,5-b][1,4]diazepin-2-yl)amino)-N-(1-(2-(2-(2-((2-(2,6-dioxopiperidin-3-yl)-1,3-dioxoisoindolin-4-yl)amino)acetamido)ethoxy)ethyl)piperidin-4-yl)-2-fluoro-5-methoxybenzamide], the 50% degradation concentration (DC50) is at most 50 nM and the maximal degradation (Dmax) was at least 80%. For `COc1cc(C(=O)NC2CCN(CCOCCOCCOCCNC(=O)CNc3cccc4c3C(=O)N(C3CCC(=O)NC3=O)C4=O)CC2)c(F)cc1Nc1ncc2c(n1)N(C1CCCC1)CC(F)(F)C(=O)N2C` (centres unmarked) [Compound 30, 4-((9-cyclopentyl-7,7-difluoro-5-methyl-6-oxo-6,7,8,9-tetrahydro-5H-pyrimido[4,5-b][1,4]diazepin-2-yl)amino)-N-(1-(1-((2-(2,6-dioxopiperidin-3-yl)-1,3-dioxoisoindolin-4-yl)amino)-2-oxo-6,9,12-trioxa-3-azatetradecan-14-yl)piperidin-4-yl)-2-fluoro-5-methoxybenzamide], in that order: at most 50 nM and at least 80%.
